Square brackets hold non-standard residues; d marks the D form. Peptide text beside a SMILES is read from it. * marks the point of attachment. ξ: configuration not given here. Ile(3ξ) = CCC(C)[C@H](N)C(=O)O; Boc = CC(C)(C)OC(=O)*; OtBu = CC(C)(C)O*
Tested on: tobacco bacterial rot (Pectobacterium carotovorum)
Assay: Suppression of tobacco bacterial rot
Type: in vivo, Pectobacterium carotovorum SCC1
Protocol: A tobacco or cucumber was sown in a plastic pot with a diameter of 10 cm×13 cm, and then, 12 pots were added in a yellow box. After seeding, 100 μL was inoculated to the cotyledons of cucumber or tobacco, in which first leaf was started to come out. The test compounds were dissolved in 20% methanol to make a stock solution, and then, the stock solution was diluted to the concentrations of 1, 10, and 100 ppm.
After 7 days, the pathogen of a plant bacterial rot (Pectobacterium carotovorum SCC1) was cultured in a TSA medium for 27 hours; and then, the cultured pathogen was sprayed in a concentration of 10^8 cfu/mL to the plant leaves, and cultured at 30° C. for 3 days. The plant anthracnose germ (Colletotrichum orbiculare) was cultured in a GBA (Green bean agar) medium to induce spores for about 2 to 3 weeks. The germ was sprayed in a concentration of 10^5 cell/mL and then cultured at 26° C. for 1 day. When fourth or fifth leaf came out, 200 μL of each of the test compounds was inoculated to third leaf. After 7 days, the pathogen of the plant bacterial rot was sprayed to the plant leaves in the concentration of 10^8 cfu/mL, and then cultured at 30° C. for 3 days.
The investigation was performed with naked eyes, and the lesion relative areas were investigated until 0 to 100% according to the shortness degrees of the bacterial rot. The anthracnose was investigated by counting the number of lesions occurred on the leaves.

COC(=O)[C@H](CC(C)C)NC(=O)[C@H](CO)NC(=O)OC(C)(C)C [Compound 1] (Boc-Ser-Leu-OMe)
Lesion outbreak rate (Table 3, tobacco, 1 ppm): 73%
Lesion outbreak rate (Table 3, tobacco, 10 ppm): 10%
Lesion outbreak rate (Table 3, tobacco, 100 ppm): 57%

COC(=O)[C@H](CC(C)C)NC(=O)[C@@H](N)CO [Compound 2] (H-Ser-Leu-OMe)
Lesion outbreak rate (Table 3, tobacco, 1 ppm): 60%
Lesion outbreak rate (Table 3, tobacco, 10 ppm): 39%
Lesion outbreak rate (Table 3, tobacco, 100 ppm): 41%

COC(=O)CNC(=O)[C@H](CC(C)C)NC(=O)OC(C)(C)C [Compound 3] (Boc-Leu-Gly-OMe)
Lesion outbreak rate (Table 3, tobacco, 1 ppm): 13%
Lesion outbreak rate (Table 3, tobacco, 10 ppm): 68%
Lesion outbreak rate (Table 3, tobacco, 100 ppm): 80%

CCOC(=O)[C@H](C)NC(=O)[C@H](CC(C)C)NC(=O)OC(C)(C)C [Compound 9] (Boc-Leu-Ala-OEt)
Lesion outbreak rate (Table 3, tobacco, 1 ppm): 90%
Lesion outbreak rate (Table 3, tobacco, 10 ppm): 53%
Lesion outbreak rate (Table 3, tobacco, 100 ppm): 82%

CCOC(=O)[C@H](C)NC(=O)[C@@H](N)CC(C)C [Compound 10] (H-Leu-Ala-OEt)
Lesion outbreak rate (Table 3, tobacco, 1 ppm): 80%
Lesion outbreak rate (Table 3, tobacco, 10 ppm): 73%
Lesion outbreak rate (Table 3, tobacco, 100 ppm): 87%

CC(C)C[C@H](N)C(=O)N[C@@H](C)C(=O)O [Compound 11] (H-Leu-Ala-OH)
Lesion outbreak rate (Table 3, tobacco, 1 ppm): 30%
Lesion outbreak rate (Table 3, tobacco, 10 ppm): 46%
Lesion outbreak rate (Table 3, tobacco, 100 ppm): 21%

COC(=O)[C@H](C)NC(=O)[C@@H](NC(=O)OC(C)(C)C)C(C)C [Compound 12] (Boc-Val-Ala-OMe)
Lesion outbreak rate (Table 6, tobacco, 1 ppm): 45%
Lesion outbreak rate (Table 6, tobacco, 10 ppm): 33%
Lesion outbreak rate (Table 6, tobacco, 100 ppm): 25%

COC(=O)[C@H](C)NC(=O)[C@H](C)NC(=O)OC(C)(C)C [Compound 13] (Boc-Ala-Ala-OMe)
Lesion outbreak rate (Table 6, tobacco, 1 ppm): 100%
Lesion outbreak rate (Table 6, tobacco, 10 ppm): 100%
Lesion outbreak rate (Table 6, tobacco, 100 ppm): 28%

COC(=O)[C@H](Cc1c[nH]c2ccccc12)NC(=O)CNC(=O)OC(C)(C)C [Compound 16] (Boc-Gly-Trp-OMe)
Lesion outbreak rate (Table 6, tobacco, 1 ppm): 25%
Lesion outbreak rate (Table 6, tobacco, 10 ppm): 25%
Lesion outbreak rate (Table 6, tobacco, 100 ppm): 53%

COC(=O)[C@H](Cc1c[nH]c2ccccc12)NC(=O)[C@@H](NC(=O)OC(C)(C)C)C(C)C [Compound 17] (Boc-Val-Trp-OMe)
Lesion outbreak rate (Table 6, tobacco, 1 ppm): 100%
Lesion outbreak rate (Table 6, tobacco, 10 ppm): 25%
Lesion outbreak rate (Table 6, tobacco, 100 ppm): 100%

COC(=O)CNC(=O)CNC(=O)OC(C)(C)C [Compound 18] (Boc-Gly-Gly-OMe)
Lesion outbreak rate (Table 6, tobacco, 1 ppm): 80%
Lesion outbreak rate (Table 6, tobacco, 10 ppm): 75%
Lesion outbreak rate (Table 6, tobacco, 100 ppm): 68%

COC(=O)[C@@H]1CCCN1C(=O)[C@H](Cc1ccccc1)NC(=O)OC(C)(C)C [Compound 19] (Boc-Phe-Pro-OMe)
Lesion outbreak rate (Table 6, tobacco, 1 ppm): 49%
Lesion outbreak rate (Table 6, tobacco, 10 ppm): 42%
Lesion outbreak rate (Table 6, tobacco, 100 ppm): 50%

COC(=O)[C@@H]1CCCN1C(=O)[C@H](C)NC(=O)OC(C)(C)C [Compound 20] (Boc-Ala-Pro-OMe)
Lesion outbreak rate (Table 6, tobacco, 1 ppm): 56%
Lesion outbreak rate (Table 6, tobacco, 10 ppm): 63%
Lesion outbreak rate (Table 6, tobacco, 100 ppm): 51%

COC(=O)[C@@H]1CCCN1C(=O)[C@@H](NC(=O)OC(C)(C)C)C(C)C [Compound 21] (Boc-Val-Pro-OMe)
Lesion outbreak rate (Table 6, tobacco, 1 ppm): 37%
Lesion outbreak rate (Table 6, tobacco, 10 ppm): 46%
Lesion outbreak rate (Table 6, tobacco, 100 ppm): 35%

COC(=O)[C@@H]1CCCN1C(=O)[C@H](CC(C)C)NC(=O)OC(C)(C)C [Compound 22] (Boc-Leu-Pro-OMe)
Lesion outbreak rate (Table 6, tobacco, 1 ppm): 35%
Lesion outbreak rate (Table 6, tobacco, 10 ppm): 24%
Lesion outbreak rate (Table 6, tobacco, 100 ppm): 46%

COC(=O)[C@@H]1CCCN1C(=O)[C@H](CCC(N)=O)NC(=O)OC(C)(C)C [Compound 23] (Boc-Gln-Pro-OMe)
Lesion outbreak rate (Table 6, tobacco, 1 ppm): 25%
Lesion outbreak rate (Table 6, tobacco, 10 ppm): 52%
Lesion outbreak rate (Table 6, tobacco, 100 ppm): 36%

COC(=O)C1CCCN1C(=O)C(NC(=O)OC(C)(C)C)C(C)O (stereo not drawn) [Compound 24] (Boc-Thr-Pro-OMe; configuration not given here)
Lesion outbreak rate (Table 4, tobacco, 1 ppm): 13%
Lesion outbreak rate (Table 4, tobacco, 10 ppm): 65%
Lesion outbreak rate (Table 4, tobacco, 100 ppm): 33%

COC(=O)[C@@H]1CCCN1C(=O)[C@H](CC(=O)OC(C)(C)C)NC(=O)OC(C)(C)C [Compound 25] (Boc-Asp(OtBu)-Pro-OMe)
Lesion outbreak rate (Table 4, tobacco, 1 ppm): 50%
Lesion outbreak rate (Table 4, tobacco, 10 ppm): 70%
Lesion outbreak rate (Table 4, tobacco, 100 ppm): 50%

COC(=O)[C@@H]1CCCN1C(=O)[C@H](CC(N)=O)NC(=O)OC(C)(C)C [Compound 26] (Boc-Asn-Pro-OMe)
Lesion outbreak rate (Table 4, tobacco, 1 ppm): 63%
Lesion outbreak rate (Table 4, tobacco, 10 ppm): 23%
Lesion outbreak rate (Table 4, tobacco, 100 ppm): 60%

COC(=O)[C@@H]1CCCN1C(=O)[C@@H]1CCCN1C(=O)OC(C)(C)C [Compound 27] (Boc-Pro-Pro-OMe)
Lesion outbreak rate (Table 4, tobacco, 1 ppm): 33%
Lesion outbreak rate (Table 4, tobacco, 10 ppm): 30%
Lesion outbreak rate (Table 4, tobacco, 100 ppm): 20%

COC(=O)[C@@H]1CCCN1C(=O)[C@H](CCCCNC(=O)OC(C)(C)C)NC(=O)OC(C)(C)C [Compound 28] (Boc-Lys(Boc)-Pro-OMe)
Lesion outbreak rate (Table 4, tobacco, 1 ppm): 20%
Lesion outbreak rate (Table 4, tobacco, 10 ppm): 80%
Lesion outbreak rate (Table 4, tobacco, 100 ppm): 13%

COC(=O)[C@@H]1CCCN1C(=O)[C@H](Cc1c[nH]cn1)NC(=O)OC(C)(C)C [Compound 29]
Lesion outbreak rate (Table 4, tobacco, 1 ppm): 63%
Lesion outbreak rate (Table 4, tobacco, 10 ppm): 43%
Lesion outbreak rate (Table 4, tobacco, 100 ppm): 63%

COC(=O)[C@@H]1CCCN1C(=O)[C@H](CCC(=O)OC(C)(C)C)NC(=O)OC(C)(C)C [Compound 30] (Boc-Glu(OtBu)-Pro-OMe)
Lesion outbreak rate (Table 4, tobacco, 1 ppm): 23%
Lesion outbreak rate (Table 4, tobacco, 10 ppm): 36%
Lesion outbreak rate (Table 4, tobacco, 100 ppm): 13%

COC(=O)[C@@H]1CCCN1C(=O)[C@H](CCCNC(=NC(=O)OCc1ccccc1)NC(=O)OCc1ccccc1)NC(=O)OC(C)(C)C [Compound 31]
Lesion outbreak rate (Table 4, tobacco, 1 ppm): 63%
Lesion outbreak rate (Table 4, tobacco, 10 ppm): 56%
Lesion outbreak rate (Table 4, tobacco, 100 ppm): 73%

COC(=O)[C@@H]1CCCN1C(=O)[C@H](Cc1ccc(O)cc1)NC(=O)OC(C)(C)C [Compound 32] (Boc-Tyr-Pro-OMe)
Lesion outbreak rate (Table 4, tobacco, 1 ppm): 78%
Lesion outbreak rate (Table 4, tobacco, 10 ppm): 30%
Lesion outbreak rate (Table 4, tobacco, 100 ppm): 60%

COC(=O)[C@H]1CCCN1C(=O)[C@@H]1CCCN1C(=O)OC(C)(C)C [Compound 33] (Boc-Pro-[dP]-OMe)
Lesion outbreak rate (Table 4, tobacco, 1 ppm): 80%
Lesion outbreak rate (Table 4, tobacco, 10 ppm): 38%
Lesion outbreak rate (Table 4, tobacco, 100 ppm): 18%

CCC(C)[C@H](NC(=O)OC(C)(C)C)C(=O)N1CCC[C@@H]1C(=O)OC (some centres unmarked) [Compound 34] (Boc-[Ile(3ξ)]-[dP]-OMe)
Lesion outbreak rate (Table 4, tobacco, 1 ppm): 35%
Lesion outbreak rate (Table 4, tobacco, 10 ppm): 41%
Lesion outbreak rate (Table 4, tobacco, 100 ppm): 24%

COC(=O)[C@H]1CCCN1C(=O)[C@H](Cc1ccc(O)cc1)NC(=O)OC(C)(C)C [Compound 35] (Boc-Tyr-[dP]-OMe)
Lesion outbreak rate (Table 4, tobacco, 1 ppm): 18%
Lesion outbreak rate (Table 4, tobacco, 10 ppm): 43%
Lesion outbreak rate (Table 4, tobacco, 100 ppm): 50%

COC(=O)[C@H]1CCCN1C(=O)[C@H](CC(C)C)NC(=O)OC(C)(C)C [Compound 36] (Boc-Leu-[dP]-OMe)
Lesion outbreak rate (Table 4, tobacco, 1 ppm): 45%
Lesion outbreak rate (Table 4, tobacco, 10 ppm): 41%
Lesion outbreak rate (Table 4, tobacco, 100 ppm): 38%

COC(=O)[C@H]1CCCN1C(=O)[C@H](CC(=O)OC(C)(C)C)NC(=O)OC(C)(C)C [Compound 37] (Boc-Asp(OtBu)-[dP]-OMe)
Lesion outbreak rate (Table 4, tobacco, 1 ppm): 5%
Lesion outbreak rate (Table 4, tobacco, 10 ppm): 5%
Lesion outbreak rate (Table 4, tobacco, 100 ppm): 43%

COC(=O)[C@H]1CCCN1C(=O)CNC(=O)OC(C)(C)C [Compound 38] (Boc-Gly-[dP]-OMe)
Lesion outbreak rate (Table 4, tobacco, 1 ppm): 13%
Lesion outbreak rate (Table 4, tobacco, 10 ppm): 80%
Lesion outbreak rate (Table 4, tobacco, 100 ppm): 60%

COC(=O)[C@H]1CCCN1C(=O)[C@H](CO)NC(=O)OC(C)(C)C [Compound 39] (Boc-Ser-[dP]-OMe)
Lesion outbreak rate (Table 4, tobacco, 1 ppm): 35%
Lesion outbreak rate (Table 4, tobacco, 10 ppm): 10%
Lesion outbreak rate (Table 4, tobacco, 100 ppm): 43%

COC(=O)[C@H]1CCCN1C(=O)[C@H](CCSC)NC(=O)OC(C)(C)C [Compound 40] (Boc-Met-[dP]-OMe)
Lesion outbreak rate (Table 4, tobacco, 1 ppm): 8%
Lesion outbreak rate (Table 4, tobacco, 10 ppm): 45%
Lesion outbreak rate (Table 4, tobacco, 100 ppm): 43%

COC(=O)[C@H]1CCCN1C(=O)[C@H](CC(N)=O)NC(=O)OC(C)(C)C [Compound 41] (Boc-Asn-[dP]-OMe)
Lesion outbreak rate (Table 4, tobacco, 1 ppm): 30%
Lesion outbreak rate (Table 4, tobacco, 10 ppm): 50%
Lesion outbreak rate (Table 4, tobacco, 100 ppm): 18%

COC(=O)[C@H]1CCCN1C(=O)[C@H](Cc1ccccc1)NC(=O)OC(C)(C)C [Compound 42] (Boc-Phe-[dP]-OMe)
Lesion outbreak rate (Table 4, tobacco, 1 ppm): 43%
Lesion outbreak rate (Table 4, tobacco, 10 ppm): 60%
Lesion outbreak rate (Table 4, tobacco, 100 ppm): 45%

COC(=O)[C@H]1CCCN1C(=O)[C@H](Cc1c[nH]c2ccccc12)NC(=O)OC(C)(C)C [Compound 43] (Boc-Trp-[dP]-OMe)
Lesion outbreak rate (Table 4, tobacco, 1 ppm): 35%
Lesion outbreak rate (Table 4, tobacco, 10 ppm): 45%
Lesion outbreak rate (Table 4, tobacco, 100 ppm): 31%

COC(=O)[C@H]1CCCN1C(=O)[C@H](C)NC(=O)OC(C)(C)C [Compound 44] (Boc-Ala-[dP]-OMe)
Lesion outbreak rate (Table 4, tobacco, 1 ppm): 46%
Lesion outbreak rate (Table 4, tobacco, 10 ppm): 37%
Lesion outbreak rate (Table 4, tobacco, 100 ppm): 33%

COC(=O)[C@H]1CCCN1C(=O)[C@H](CCC(N)=O)NC(=O)OC(C)(C)C [Compound 45] (Boc-Gln-[dP]-OMe)
Lesion outbreak rate (Table 4, tobacco, 1 ppm): 83%
Lesion outbreak rate (Table 4, tobacco, 10 ppm): 33%
Lesion outbreak rate (Table 4, tobacco, 100 ppm): 55%

COC(=O)[C@H]1CCCN1C(=O)[C@H](Cc1c[nH]cn1)NC(=O)OC(C)(C)C [Compound 46]
Lesion outbreak rate (Table 4, tobacco, 1 ppm): 56%
Lesion outbreak rate (Table 4, tobacco, 10 ppm): 70%
Lesion outbreak rate (Table 4, tobacco, 100 ppm): 48%

COC(=O)C1CCCN1C(=O)C(NC(=O)OC(C)(C)C)C(C)O (stereo not drawn) [Compound 47] (Boc-Thr-Pro-OMe; configuration not given here)
Lesion outbreak rate (Table 5, tobacco, 10 ppm): 0%
Lesion outbreak rate (Table 5, tobacco, 100 ppm): 50%

Reference: patent US20150119251A1, “AGRICULTURAL PLANT-PROTECTING AGENTS CONTAINING DIPEPTIDE DERIVATIVE AS ACTIVE INGREDIENT” (REPUBLIC OF KOREA (RURAL DEVELOPMENT ADMINISTRATION), priority 2012, published 2015)
